Assay results reported in ChEMBL document CHEMBL1201862, “PubChem BioAssay data set” (2004).
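Each compound was tested at five concentrations against cells in 96-well plates for 48 hours. GI50 = concentration required for 50% inhibition of growth.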 Activity calls are given as the source filed them. No stated cut-off is given here; in the data, active = GI50 up to about 1.1 µM and inactive = higher.

Assays:
Experiment in all cases: NCI tumour cell line growth inhibition, 48 h
[1] = test system: COLO 205
[2] = test system: NCI-H460
[3] = test system: HL-60
[4] = test system: SK-MEL-5
[5] = test system: SNB-19
[6] = test system: NCI-H23
[7] = test system: SF-268
[8] = test system: OVCAR-4
[9] = test system: EKVX
[10] = test system: CAKI-1
[11] = test system: OVCAR-8
[12] = test system: SF-539
[13] = test system: HCT-116
[14] = test system: A549
[15] = test system: U-251
[16] = test system: UACC-62
[17] = test system: SF-295
[18] = test system: RPMI-8226
[19] = test system: MOLT-4
[20] = test system: HCT-15

For O=C1C=C[C@@H](COC2OC(CO)C(O)C(O)C2O)O1 (stereo not given in full), the GI50 [1] was 6.98 µM (inactive), the GI50 [2] was 10.3 µM (inactive) and the GI50 [3] was 1.72 µM (inactive). The GI50 [4] was 17.8 µM (inactive), the GI50 [5] was > 10 µM (inactive) and the GI50 [6] was 10.9 µM (inactive). For the same compound, the GI50 [7] was 25.8 µM (inactive), the GI50 [8] was 19 µM (inactive) and the GI50 [9] was 20.4 µM (inactive). For the same compound, the GI50 [10] was 17.9 µM (inactive), the GI50 [11] was 14.2 µM (inactive) and the GI50 [12] was 5.6 µM (inactive). For the same compound, the GI50 [13] was > 100 µM (inactive), the GI50 [14] was 22 µM (inactive) and the GI50 [15] was 15.7 µM (inactive). The GI50 [16] was 10.2 µM (inactive), the GI50 [17] was 18.1 µM (inactive) and the GI50 [18] was 3.16 µM (inactive). The GI50 [19] was 4.39 µM (inactive) and the GI50 [20] was 3.69 µM.

Cc1c2ccnc(C(F)(F)F)c2cc2c1[nH]c1ccccc12 was tested, and the GI50 [1] was > 125 µM (inactive), the GI50 [2] was 123 µM (inactive) and the GI50 [3] was > 125 µM (inactive). The GI50 [4] was > 125 µM (inactive), the GI50 [5] was 118 µM (inactive) and the GI50 [6] was > 125 µM (inactive). For the same compound, the GI50 [7] was 101 µM (inactive), the GI50 [8] was > 125 µM (inactive) and the GI50 [9] was > 125 µM (inactive). For the same compound, the GI50 [10] was > 125 µM (inactive), the GI50 [11] was 110 µM (inactive) and the GI50 [12] was 99.1 µM (inactive). The GI50 [13] was > 125 µM (inactive), the GI50 [14] was > 125 µM (inactive) and the GI50 [15] was > 125 µM (inactive). The GI50 [16] was > 125 µM (inactive), the GI50 [17] was 23.2 µM (inactive) and the GI50 [18] was 85.1 µM (inactive). For the same compound, the GI50 [19] was 85.1 µM (inactive) and the GI50 [20] was greater than 125 µM.

CCCn1c(CN(Cc2nc3ccccc3n2CCC)Cc2nc3ccccc3n2CCC)nc2ccccc21 was tested, and the GI50 [1] was 2.81 µM (inactive), the GI50 [2] was 3.27 µM (inactive) and the GI50 [3] was 0.764 µM (active). For the same compound, the GI50 [4] was 2.55 µM (inactive), the GI50 [5] was 7.01 µM (inactive) and the GI50 [6] was 5.11 µM (inactive). The GI50 [7] was 3.99 µM (inactive), the GI50 [8] was 3.73 µM (inactive) and the GI50 [9] was 0.966 µM (active). The GI50 [10] was 2.81 µM (inactive), the GI50 [11] was 2.25 µM (inactive) and the GI50 [12] was 4.2 µM (inactive). The GI50 [13] was 1.74 µM (inactive), the GI50 [14] was 2.59 µM (inactive) and the GI50 [15] was 3.97 µM (inactive). For the same compound, the GI50 [16] was 3.7 µM (inactive), the GI50 [17] was 8.55 µM (inactive) and the GI50 [18] was 2.04 µM (inactive). For the same compound, the GI50 [19] was 3.21 µM (inactive) and the GI50 [20] was 4.39 µM.

CC(O)C(O)C(N)CC=O (stereo not given) was tested, and the GI50 [1] was > 500 µM (inactive), the GI50 [2] was > 500 µM (inactive) and the GI50 [3] was 495 µM (inactive). For the same compound, the GI50 [4] was > 500 µM (inactive), the GI50 [5] was > 500 µM (inactive) and the GI50 [6] was > 500 µM (inactive). For the same compound, the GI50 [7] was > 500 µM (inactive), the GI50 [8] was > 500 µM (inactive) and the GI50 [9] was 491 µM (inactive). For the same compound, the GI50 [10] was > 500 µM (inactive), the GI50 [11] was > 500 µM (inactive) and the GI50 [12] was > 500 µM (inactive). The GI50 [13] was > 500 µM (inactive), the GI50 [14] was > 500 µM (inactive) and the GI50 [15] was > 500 µM (inactive). For the same compound, the GI50 [16] was > 500 µM (inactive), the GI50 [17] was > 500 µM (inactive) and the GI50 [18] was > 500 µM (inactive). For the same compound, the GI50 [19] was > 500 µM (inactive) and the GI50 [20] was greater than 500 µM.
